Entries after “also recorded” stand apart in the source; their conditions may differ.
Experiments:
lysozyme = target: T1, lysozyme (Gallus gallus, UniProt P00698); test: ESI-MS Taylor dispersion screen of a mixture of six sugars for noncovalent binding to lysozyme; conditions: six sugars monitored simultaneously
T1 construct: purchased Sigma (St. Louis, Mo.)
Description: (§1) Based on the theoretical considerations described above, we will now describe details of an apparatus that allows the measurement of dispersion profiles by ESI-MS or APCI-MS. A schematic diagram of the apparatus is shown generally at 10 in FIG. 2. The measurements described below were carried out by using a 3.013 m long Teflon laminar flow tube (Upchurch, Oak Harbor, Wash.) shown as LFT or 12 in FIG. 2. The inner diameter (i.d.) of this LFT was determined gravimetrically to be 258.2 μm. In order to measure a diffusion coefficient, a sharp initial boundary must be created between the carrier solution and the following analyte solution at the entrance of the flow tube (Equation 3). This was accomplished by using a valve mechanism shown in FIG. 2 as a “sliding block mechanism (SBM)” 14 developed by the inventors. The laminar flow tube (LFT) 12 is inserted into a Teflon block machined to accommodate a PEEK connector and ferrule (Upchurch, Oak Harbor, Wash.) so that the flow tube 12 extends through to the end of the block. Initially, the entrance to the flow tube 12 is aligned with an opening in a steel block into which a piece of PEEK tubing 16 (508 μm ID, length ≈0.5 m) is fitted, using another PEEK connector and ferrule. This second piece of tubing 16 is used as the inlet tube, forming a leak-proof connection between the inlet tube and the flow tube at the boundary between the steel and Teflon blocks.
An analyte reservoir 18 (shown as a syringe in FIG. 2 which also acts as a pump) connected to the inlet tube 16 can be used to fill the inlet tube 16 with analyte solution, and to pump this analyte solution through the LFT 12. Initially, however, a carrier solution reservoir (not shown) is connected to tube 16 for filling the laminar flow tube 12 with carrier solution. The analyte solution and carrier solution reservoirs are never connected to the laminar flow tube 16 at the same time. Subsequently, the Teflon block containing the flow tube is moved sideways, such that the two tubes 12 and 16 are no longer aligned and the entrance to the flow tube 12 is closed off by the steel block. The inlet tube 16 can now be filled with analyte solution from pump 18 (syringe S1) without disturbing the carrier solution in the flow tube 12. Then the Teflon block is returned to its original position, aligning the two tubes (12 and 16) and creating a sharp boundary between the analyte solution in the inlet tube and the carrier solution in the LFT 12. The i.d. of the inlet tube 16 was chosen to be larger than that of the flow tube 12 to ensure that the boundary between the two solutions would cover the entire cross-sectional area of the flow tube 12, even if the sliding block were slightly misaligned. […]

apo-myoglobin = target: T2, apo-myoglobin (Equus caballus, UniProt P68082); test: ESI-MS Taylor dispersion (diffusion) measurement of noncovalent heme-protein binding in myoglobin; conditions: for noncovalent binding of heme to the protein: 24±1° C
T2 construct: purchased Sigma (St. Louis, Mo.)
Description: as §1
An analyte reservoir 18 (shown as a syringe in FIG. 2 which also acts as a pump) connected to the inlet tube 16 can be used to fill the inlet tube 16 with analyte solution, and to pump this analyte solution through the LFT 12. Initially, however, a carrier solution reservoir (not shown) is connected to tube 16 for filling the laminar flow tube 12 with carrier solution. The analyte solution and carrier solution reservoirs are never connected to the laminar flow tube 16 at the same time. Subsequently, the Teflon block containing the flow tube is moved sideways, such that the two tubes 12 and 16 are no longer aligned and the entrance to the flow tube 12 is closed off by the steel block. The inlet tube 16 can now be filled with analyte solution from pump 18 (syringe S1) without disturbing the carrier solution in the flow tube 12. Then the Teflon block is returned to its original position, aligning the two tubes (12 and 16) and creating a sharp boundary between the analyte solution in the inlet tube and the carrier solution in the LFT 12. The i.d. of the inlet tube 16 was chosen to be larger than that of the flow tube 12 to ensure that the boundary between the two solutions would cover the entire cross-sectional area of the flow tube 12, even if the sliding block were slightly misaligned. The use of a commercially available HPLC injection valve with a sample loop of suitable size may serve the same purpose as the described sliding block mechanism.
For the four examples given below, the analyte solution from syringe S1 is pumped through the laminar flow tube by using a Harvard syringe pump (South Nattick, Mass.). The outlet of the flow tube 12 is connected to two fused silica capillaries 26 and 28 (i.d. 100 μm, o.d. 165 μm, Polymicro Technologies, Phoenix, Ariz.) at a mixer 30 located at the end of tube 12. The first of these capillaries 26 has a length of 5 cm and is connected to the ESI source of the mass spectrometer 22. For studies on myoglobin, the second capillary 28 was used to supplement the analyte near the end of the laminar flow tube 12 with a methanol/acetic acid (90:10 v/v) mixture from syringe S2 just before it reached the ESI ion source. This “make-up” solvent was delivered at a flow rate of 5 μL/min, for a total flow rate of 10 μL/min at the ion source. The residence time of the analyte solution in the final 5 cm capillary was only about 2 s and can therefore be neglected for the analysis (the value of l/{overscore (v)} is 1929 s). […]

[1] = absence vs presence of lysozyme
[2] = denaturing conditions (50% acetonitrile, pH 10)
[3] = native-like solvent conditions (no organic cosolvents, pH 10)
[4] = semi-denaturing conditions (30% acetonitrile, pH 10)

T2 sequence (P68082 2-154 limits assumed): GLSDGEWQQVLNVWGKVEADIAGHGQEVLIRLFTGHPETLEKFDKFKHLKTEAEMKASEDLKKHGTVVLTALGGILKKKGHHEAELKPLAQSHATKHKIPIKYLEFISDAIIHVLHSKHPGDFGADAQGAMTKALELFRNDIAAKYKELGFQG
T1 sequence (P00698 19-147): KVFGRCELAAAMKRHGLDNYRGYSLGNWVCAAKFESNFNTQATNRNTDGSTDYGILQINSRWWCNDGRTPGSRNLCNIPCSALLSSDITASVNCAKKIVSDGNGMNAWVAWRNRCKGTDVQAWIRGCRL

change in dispersion profile when the protein was added (lysozyme; [1])	noncovalent binding to lysozyme (lysozyme; without and with lysozyme)	fitted diffusion coefficient of heme compared with that of the protein in myoglobin solution (apo-myoglobin; [2])	noncovalent binding of heme to the protein (apo-myoglobin; [2])	fitted diffusion coefficient of heme compared with that of the protein in myoglobin solution (apo-myoglobin; [3])	noncovalent binding of heme to the protein (apo-myoglobin; [3])	fitted diffusion coefficient of heme compared with that of the protein in myoglobin solution (apo-myoglobin; [4])	noncovalent binding of heme to the protein (apo-myoglobin; [4])	SMILES	change of apparent diffusion coefficient upon addition of the protein (lysozyme; absence vs presence of lysozyme, average of about ten measurements)
distinct change	binds noncovalently to lysozyme							CC(=O)N[C@H]1[C@H](O[C@H]2[C@H](O)[C@@H](NC(C)=O)C(O)O[C@@H]2CO)O[C@H](CO)[C@@H](O[C@@H]2O[C@H](CO)[C@@H](O)[C@H](O)[C@H]2NC(C)=O)[C@@H]1O (stereo partly shown) [chitotriose]	dramatic reduction; also recorded: significant change
		much larger diffusion coefficient	absent or extremely weak	agree closely with each other	noncovalently bound to the protein	almost identical	still bound to each other	C=CC1=C(C)c2cc3[n-]c(cc4[n-]c(cc5nc(cc1n2)C(C)=C5C=C)c(C)c4CCC(=O)O)c(CCC(=O)O)c3C.[Fe+2] [heme]	
virtually no change								C[C@H](O)[C@H](O)[C@@H](O)[C@@H](O)C=O [rhamnose]	

From US20030234356A1, “Method and apparatus for the detection of noncovalent interactions by mass spectrometry-based diffusion measurements” (priority 2002, published 2003)
